Assays:
[1] = target: human cathepsin K (UniProt P43236); test: Cathepsin K Assay (hrbCat K); type: biochemical; settings: human cathepsin K 0.4 nM, Z-Leu-Arg-AMC 8 μM, pH 5.5, 15 min preincubation; read-out: hrbCat K IP
Procedure: Cathepsin K Assay (hrbCat K)
(§1) Serial dilutions (⅓) from 500 μM down to 0.025 μM of test compounds were prepared in dimethyl sulfoxide (DMSO). Then 0.5 μL of DMSO from each dilution were added to 18.75 μL of assay buffer (MES, 50 mM (pH 5.5); EDTA, 2.5 mM; DTT, 2.5 mM and 10% DMSO) containing human cathepsin K (0.4 nM) in assay buffer solution. The assay solutions were mixed for 5-10 seconds on a shaker plate and incubated for 15 minutes at room temperature. Z-Leu-Arg-AMC (8 μM) in 6.25 μL of assay buffer was added to the assay solutions. Hydrolysis of the coumarin leaving group (AMC) was followed by spectrofluorometry (Exλ=360 nm; Emλ=460 nm) for 30 minutes. Percent of inhibition were calculated by fitting experimental values to standard mathematical model for dose response curve.

[2] = target: T1, human cathepsin F (Homo sapiens, UniProt Q9UBX1); test: Cathepsin F assay (hCat F); type: biochemical; settings: human cathepsin F 10 nM, Z-Phe-Arg-AMC 8 μM, pH 5.5, 15 min preincubation; read-out: hCat F IP
T1 sequence (Q9UBX1 271-484): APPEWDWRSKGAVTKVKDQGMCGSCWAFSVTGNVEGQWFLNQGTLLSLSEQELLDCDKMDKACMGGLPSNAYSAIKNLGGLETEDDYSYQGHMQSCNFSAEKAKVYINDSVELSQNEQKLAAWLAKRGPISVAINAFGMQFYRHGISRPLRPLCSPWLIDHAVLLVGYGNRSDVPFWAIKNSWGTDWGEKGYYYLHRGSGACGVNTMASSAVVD
Procedure: Cathepsin F assay (hCat F)
as §1, with “F (10” for “K (0.4”, “Z-Phe-Arg-AMC” for “Z-Leu-Arg-AMC”, “(Exp, =360” for “(Exλ=360”, “EmX=460” for “Emλ=460”, “20” for “30”

SMILES	IC50 [1]	IC50 [2]
N#CC1(NC(=O)[C@@H]2CCCC[C@H]2c2oc(-c3cccc(OC(F)(F)F)c3)nc2-c2ccc(N3CCS(=O)(=O)CC3)cc2)CC1 [Example 86, (1R,2R)-N-(1-cyanocyclopropyl)-2-(4-(4-(1,1-dioxidothiomorpholino)phenyl)-2-(3-(trifluoromethoxy)phenyl)oxazol-5-yl)cyclohexanecarboxamide]	2.62 nM	1830 nM
N#CC1(NC(=O)[C@@H]2CCCC[C@H]2c2oc(C(F)(F)C(F)(F)F)nc2-c2ccc(C(=O)N3CCOCC3)cc2)CC1 [Example 26, (1R,2R)-N-(1-cyanocyclopropyl)-2-(4-(4-(morpholine-4-carbonyl)phenyl)-2-(perfluoroethyl)oxazol-5-yl)cyclohexanecarboxamide]	3.64 nM	2960 nM
CC(C)(C)OC(=O)Nc1ccc(-c2nc(-c3ccc(F)cc3)oc2[C@@H]2CCCC[C@H]2C(=O)NC2(C#N)CC2)cc1 [Example 49, tert-butyl (4-(5-((1R,2R)-2-((1-cyanocyclopropyl)carbamoyl)cyclohexyl)-2-(4-fluorophenyl)oxazol-4-yl)phenyl)carbamate]	4.01 nM	1340 nM
N#CC1(NC(=O)[C@@H]2CCCC[C@H]2c2oc(-c3ncccn3)nc2-c2ccc(N3CCS(=O)(=O)CC3)cc2)CC1 [Example 90, (1R,2R)-N-(1-cyanocyclopropyl)-2-(4-(4-(1,1-dioxidothiomorpholino)phenyl)-2-(pyrimidin-2-yl)oxazol-5-yl)cyclohexanecarboxamide]	7.28 nM	≥ 10000 nM
N#CC1(NC(=O)[C@@H]2CCCC[C@H]2c2oc(-c3ccc(F)cn3)nc2-c2ccc(N3CCS(=O)(=O)CC3)cc2)CC1 [Example 32, (1R,2R)-N-(1-cyanocyclopropyl)-2-(4 (4-(1,1-dioxidothiomorpholino)phenyl)-2-(5-fluoropyridin-2-yl)oxazol-5-yl)cyclohexanecarboxamide]	3.12 nM	2490 nM
N#CC1(NC(=O)[C@@H]2CCCC[C@H]2c2oc(-c3ccccc3C(F)(F)F)nc2-c2ccc(N3CCS(=O)(=O)CC3)cc2)CC1 [Example 69, (1R,2R)-N-(1-cyanocyclopropyl)-2-(4-(4-(1,1-dioxidothiomorpholino)phenyl)-2-(2-(trifluoromethyl)phenyl)oxazol-5-yl)cyclohexanecarboxamide]	2.94 nM	827 nM
N#CC1(NC(=O)[C@@H]2CCCC[C@H]2c2oc(-c3ccc(F)cc3F)nc2-c2ccc(C(=O)N3CCOCC3)cc2)CC1 [Example 120, (1R,2R)-N-(1-cyanocyclopropyl)-2-(2-(2,4-difluorophenyl)-4-(4-(morpholine-4-carbonyl)phenyl)oxazol-5-yl)cyclohexanecarboxamide]	14.5 nM	
N#CC1(NC(=O)[C@@H]2CCCC[C@H]2c2oc(-c3ccc(F)cc3)nc2-c2ccc(N3CCOCC3)cc2)CC1 [Example 17, (1R,2R)-N-(1-cyanocyclopropyl)-2-(2-(4-fluorophenyl)-4-(4-morpholinophenyl)oxazol-5-yl)cyclohexanecarboxamide]	9.36 nM	
N#CC1(NC(=O)[C@@H]2CCCC[C@H]2c2oc(N3CCOCC3)nc2-c2ccc(N3CCS(=O)(=O)CC3)cc2)CC1 [Example 47, (1R,2R)-N-(1-cyanocyclopropyl)-2-(4-(4-(1,1-dioxidothiomorpholino)phenyl)-2-morpholinooxazol-5-yl)cyclohexanecarboxamide]	3.11 nM	
CC(C#N)NC(=O)[C@@H]1CCCC[C@H]1c1oc(-c2ccc(F)cc2F)nc1-c1ccc(N2CCS(=O)(=O)CC2)cc1 (single isomer, unassigned) [Example 45, (1R,2R)-N-((R or S)-1-cyanoethyl)-2-(2-(2,4-difluorophenyl)-4-(4-(1,1-dioxidothiomorpholino)phenyl)oxazol-5-yl)cyclohexanecarboxamide]	32.7 nM	

The next compounds have a lower IC50 [1] than those just listed; values first:

IC50 [1]	IC50 [2]	SMILES
1.89 nM	1100 nM	N#Cc1cccc(-c2nc(-c3ccc(N4CCS(=O)(=O)CC4)cc3)c([C@@H]3CCCC[C@H]3C(=O)NC3(C#N)CC3)o2)c1 [Example 93, (1R,2R)-N-(1-cyanocyclopropyl)-2-(2-(3-cyanophenyl)-4-(4-(1,1-dioxidothiomorpholino)phenyl)oxazol-5-yl)cyclohexanecarboxamide]
0.67 nM	210 nM	N#CC1(NC(=O)[C@@H]2CCCC[C@H]2c2oc(-c3ccc(F)cc3)nc2-c2ccc(N3CCS(=O)(=O)CC3)cc2)COC1 [Example 153, (1R,2R)-N-(3-cyanooxetan-3-yl)-2-(4-(4-(1,1-dioxidothiomorpholino)phenyl)-2-(4-fluorophenyl)oxazol-5-yl)cyclohexanecarboxamide]
0.51 nM	124 nM	N#CC1(NC(=O)[C@@H]2CCCC[C@H]2c2oc(-c3ccccc3C3CC3)nc2-c2ccc(N3CCS(=O)(=O)CC3)cc2)CC1 [Example 79, (1R,2R)-N-(1-cyanocyclopropyl)-2-(2-(2-cyclopropylphenyl)-4-(4-(1,1-dioxidothiomorpholino)phenyl)oxazol-5-yl)cyclohexanecarboxamide]
1.11 nM	993 nM	N#CC1(NC(=O)[C@@H]2CCCC[C@H]2c2oc(-c3cncnc3)nc2-c2ccc(N3CCS(=O)(=O)CC3)cc2)CC1 [Example 35, (1R,2R)-N-(1-cyanocyclopropyl)-2-(4-(4-(1,1-dioxidothiomorpholino)phenyl)-2-(pyrimidin-5-yl)oxazol-5-yl) cyclohexanecarboxamide]
1.93 nM	582 nM	CC1(c2nc(-c3ccc(N4CCS(=O)(=O)CC4)cc3)c([C@@H]3CCCC[C@H]3C(=O)NC3(C#N)CC3)o2)CC[Si](C)(C)CC1 [Example 53, (1R,2R)-N-(1-cyanocyclopropyl)-2-(4-(4-(1,1-dioxidothiomorpholino)phenyl)-2-(1,1,4-trimethylsilinan-4-yl)oxazol-5-yl)cyclohexanecarboxamide]
1.77 nM	670 nM	N#CC(CC(F)(F)F)NC(=O)[C@@H]1CCCC[C@H]1c1oc(-c2ccc(F)cc2)nc1-c1ccc(N2CCS(=O)(=O)CC2)cc1 (single isomer, unassigned) [Example 132, (1R,2R)-N-((S or R)-1-cyano-3,3,3-trifluoropropyl)-2-(4-(4-(1,1-dioxidothiomorpholino)phenyl)-2-(4-fluorophenyl)oxazol-5-yl)cyclohexanecarboxamide]
1.42 nM	2220 nM	N#CC1(NC(=O)[C@@H]2CCCC[C@H]2c2oc(-c3ccc(C(F)(F)F)nc3)nc2-c2ccc(N3CCS(=O)(=O)CC3)cc2)CC1 [Example 40, (1R,2R)-N-(1-cyanocyclopropyl)-2-(4-(4-(1,1 dioxidothiomorpholino)phenyl)-2-(6-(trifluoromethyl)pyridin-3-yl)oxazol-5-yl)cyclohexane carboxamide]
0.73 nM	126 nM	N#CCNC(=O)[C@@H]1CCCC[C@H]1c1oc(-c2ccc(F)cc2)nc1-c1ccc(N2CCS(=O)(=O)CC2)cc1 [Example 112, (1R,2R)-N-(cyanomethyl)-2-(4-(4-(1,1-dioxidothiomorpholino)phenyl)-2-(4-fluorophenyl)oxazol-5-yl)cyclohexanecarboxamide]
1.83 nM	1060 nM	N#CC1(NC(=O)[C@@H]2CCCC[C@H]2c2oc(C3CCC(C(F)(F)F)CC3)nc2-c2ccc(N3CCS(=O)(=O)CC3)cc2)CC1 (mixture of isomers) [Example 111, (1R,2R)-N-(1-cyanocyclopropyl)-2-(4-(4-(1,1-dioxidothiomorpholino)phenyl)-2-((1R,4R and 1S,4S)-4-(trifluoromethyl)cyclohexyl)oxazol-5-yl)cyclohexanecarboxamide]
2.4 nM		N#CC1(NC(=O)[C@@H]2CCCC[C@H]2c2oc(-c3ccc(S(=O)(=O)C(F)(F)F)cc3)nc2-c2ccc(N3CCS(=O)(=O)CC3)cc2)CC1 [Example 104, (1R,2R)-N-(1-cyanocyclopropyl)-2-(4-(4-(1,1-dioxidothiomorpholino)phenyl)-2-(4-((trifluoromethyl)sulfonyl)phenyl)oxazol-5-yl)cyclohexanecarboxamide]
1.1 nM		N#CC1(NC(=O)[C@@H]2CCCC[C@H]2c2oc(-c3ccc(Cl)c(F)c3)nc2-c2ccc(N3CCS(=O)(=O)CC3)cc2)CC1 [Example 76, (1R,2R)-2-(2-(4-chloro-3-fluorophenyl)-4-(4-(1,1-dioxidothiomorpholino)phenyl)oxazol-5-yl)-N-(1-cyanocyclopropyl) cyclohexanecarboxamide]
